Assay results taken from US9999622B2, “Pyrazolothiazole compound and medicine comprising same” (NIPPON SHINYAKU CO., LTD., priority 2014, dated 2018).

How the values were obtained:
Format in all cases: biochemical
JAK1 = target: T1, JAK1 (Homo sapiens, UniProt P23458); assay: JAK tyrosine kinase inhibitory activity in the presence of 1 mM ATP (ELISA), JAK1
T1 construct: purchased Carna Biosciences, Inc
How it was run: (§1)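 ELISA read-out: HRP-labelled anti-phosphotyrosine antibody with TMB, absorbance 450 nm, after 1 h kinase reaction at 30 °C in presence of 1 mM ATP. Kinase diluted to 7.5 nM (JAK1) or 0.75 nM (JAK2/JAK3) in Tris-HCl pH 7.5 buffer with DTT; compounds tested in duplicate.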

JAK3 = target: T2, JAK3 (Homo sapiens, UniProt P52333); assay: JAK tyrosine kinase inhibitory activity in the presence of 1 mM ATP (ELISA), JAK3
T2 construct: purchased Carna Biosciences, Inc
T2 sequence (P52333 1-1124): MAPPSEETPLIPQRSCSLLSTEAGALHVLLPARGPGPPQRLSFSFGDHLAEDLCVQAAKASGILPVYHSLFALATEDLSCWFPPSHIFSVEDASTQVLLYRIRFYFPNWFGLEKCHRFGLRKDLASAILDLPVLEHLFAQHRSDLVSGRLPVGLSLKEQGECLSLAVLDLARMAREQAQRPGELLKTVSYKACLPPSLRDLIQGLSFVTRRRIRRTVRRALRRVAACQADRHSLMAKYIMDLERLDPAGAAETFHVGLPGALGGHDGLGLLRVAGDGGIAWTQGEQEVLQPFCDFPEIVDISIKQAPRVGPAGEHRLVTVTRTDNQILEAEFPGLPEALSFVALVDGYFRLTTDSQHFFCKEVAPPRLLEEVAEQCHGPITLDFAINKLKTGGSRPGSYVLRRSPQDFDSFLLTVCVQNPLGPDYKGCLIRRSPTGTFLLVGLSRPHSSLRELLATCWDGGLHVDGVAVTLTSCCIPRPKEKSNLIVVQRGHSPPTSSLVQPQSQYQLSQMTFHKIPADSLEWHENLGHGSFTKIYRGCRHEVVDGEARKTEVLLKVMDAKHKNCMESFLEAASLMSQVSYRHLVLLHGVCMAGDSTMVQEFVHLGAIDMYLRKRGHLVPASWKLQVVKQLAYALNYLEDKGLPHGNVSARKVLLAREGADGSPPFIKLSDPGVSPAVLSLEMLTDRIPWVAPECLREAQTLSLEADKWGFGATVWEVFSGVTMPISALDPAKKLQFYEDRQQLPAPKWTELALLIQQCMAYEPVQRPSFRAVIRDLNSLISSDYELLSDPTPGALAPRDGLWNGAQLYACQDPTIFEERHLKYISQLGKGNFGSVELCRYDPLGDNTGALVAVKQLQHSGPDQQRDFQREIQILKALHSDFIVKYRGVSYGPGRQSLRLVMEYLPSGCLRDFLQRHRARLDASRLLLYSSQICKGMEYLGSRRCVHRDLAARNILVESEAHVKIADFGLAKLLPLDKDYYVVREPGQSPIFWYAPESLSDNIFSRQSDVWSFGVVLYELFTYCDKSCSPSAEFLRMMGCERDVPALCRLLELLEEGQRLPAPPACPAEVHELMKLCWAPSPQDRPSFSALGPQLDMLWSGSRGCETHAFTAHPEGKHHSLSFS
How it was run: as §1

JAK2 = target: T3, JAK2 (Homo sapiens, UniProt O60674); assay: JAK tyrosine kinase inhibitory activity in the presence of 1 mM ATP (ELISA), JAK2
T3 construct: purchased Carna Biosciences, Inc
How it was run: as §1

T3 sequence (O60674 whole entry): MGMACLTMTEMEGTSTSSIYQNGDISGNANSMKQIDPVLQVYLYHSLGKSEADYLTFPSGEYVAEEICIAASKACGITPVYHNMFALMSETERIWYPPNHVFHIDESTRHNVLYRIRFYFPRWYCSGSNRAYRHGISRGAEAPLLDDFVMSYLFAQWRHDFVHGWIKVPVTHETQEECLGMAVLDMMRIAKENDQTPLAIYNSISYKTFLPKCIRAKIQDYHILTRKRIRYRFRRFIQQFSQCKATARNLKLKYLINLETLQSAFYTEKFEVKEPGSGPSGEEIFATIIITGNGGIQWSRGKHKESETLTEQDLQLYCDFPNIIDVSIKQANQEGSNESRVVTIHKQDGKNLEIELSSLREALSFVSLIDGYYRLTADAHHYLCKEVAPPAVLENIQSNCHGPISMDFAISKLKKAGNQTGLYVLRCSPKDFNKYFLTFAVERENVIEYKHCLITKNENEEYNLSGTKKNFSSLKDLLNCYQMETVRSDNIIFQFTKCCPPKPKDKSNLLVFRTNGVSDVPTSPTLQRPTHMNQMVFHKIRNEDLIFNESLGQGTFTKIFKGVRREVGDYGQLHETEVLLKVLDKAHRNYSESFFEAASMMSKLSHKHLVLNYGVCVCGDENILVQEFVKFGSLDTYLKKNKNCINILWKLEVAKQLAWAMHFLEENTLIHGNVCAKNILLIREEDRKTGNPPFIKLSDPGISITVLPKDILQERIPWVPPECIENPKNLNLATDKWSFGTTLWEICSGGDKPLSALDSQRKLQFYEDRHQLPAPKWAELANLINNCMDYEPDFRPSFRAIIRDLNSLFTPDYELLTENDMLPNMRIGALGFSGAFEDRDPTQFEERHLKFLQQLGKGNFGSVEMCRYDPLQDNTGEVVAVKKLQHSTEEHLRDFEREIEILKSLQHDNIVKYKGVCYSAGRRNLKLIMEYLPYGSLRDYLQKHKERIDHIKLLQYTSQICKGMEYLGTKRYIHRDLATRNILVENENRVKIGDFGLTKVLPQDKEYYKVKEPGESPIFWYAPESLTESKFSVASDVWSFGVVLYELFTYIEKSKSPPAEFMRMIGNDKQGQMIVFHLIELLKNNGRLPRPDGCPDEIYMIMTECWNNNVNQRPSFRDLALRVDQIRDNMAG
T1 sequence (P23458 whole entry): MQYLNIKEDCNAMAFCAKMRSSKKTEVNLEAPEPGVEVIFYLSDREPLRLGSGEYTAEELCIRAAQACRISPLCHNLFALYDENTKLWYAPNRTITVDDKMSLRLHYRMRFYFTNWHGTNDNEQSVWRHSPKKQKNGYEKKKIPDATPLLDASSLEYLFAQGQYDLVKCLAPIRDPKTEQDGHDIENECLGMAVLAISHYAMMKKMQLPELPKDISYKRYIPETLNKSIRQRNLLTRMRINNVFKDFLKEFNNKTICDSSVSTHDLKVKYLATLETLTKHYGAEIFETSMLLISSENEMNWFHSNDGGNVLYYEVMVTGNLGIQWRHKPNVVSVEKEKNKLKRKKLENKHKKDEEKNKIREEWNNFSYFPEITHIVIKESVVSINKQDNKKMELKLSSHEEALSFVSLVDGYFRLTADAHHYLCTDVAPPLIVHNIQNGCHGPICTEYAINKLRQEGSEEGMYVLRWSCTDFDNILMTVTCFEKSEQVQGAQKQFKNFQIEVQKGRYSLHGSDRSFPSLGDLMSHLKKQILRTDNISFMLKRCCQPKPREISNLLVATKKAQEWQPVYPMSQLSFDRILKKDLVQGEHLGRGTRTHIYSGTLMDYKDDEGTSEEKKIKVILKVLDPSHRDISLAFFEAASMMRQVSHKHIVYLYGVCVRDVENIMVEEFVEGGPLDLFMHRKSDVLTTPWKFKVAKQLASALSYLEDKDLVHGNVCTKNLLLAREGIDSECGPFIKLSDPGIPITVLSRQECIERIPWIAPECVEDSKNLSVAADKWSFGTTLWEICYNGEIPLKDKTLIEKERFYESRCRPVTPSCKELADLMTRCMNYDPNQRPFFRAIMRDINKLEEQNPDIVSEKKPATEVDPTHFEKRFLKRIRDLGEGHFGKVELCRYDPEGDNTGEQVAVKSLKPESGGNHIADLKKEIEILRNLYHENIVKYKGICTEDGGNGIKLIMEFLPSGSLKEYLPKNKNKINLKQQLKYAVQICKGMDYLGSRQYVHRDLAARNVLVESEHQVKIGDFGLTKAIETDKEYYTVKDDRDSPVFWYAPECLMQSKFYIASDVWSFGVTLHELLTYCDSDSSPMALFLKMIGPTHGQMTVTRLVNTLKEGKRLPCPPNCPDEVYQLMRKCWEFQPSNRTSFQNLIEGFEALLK

Row | IC50 (JAK1) [nM] | IC50 (JAK3) [nM] | IC50 (JAK2) [nM] | SMILES
1 | 88 | 1700 | 5400 | C[C@@H](Nc1cc(C(=O)N2CCC(NC(=O)C3CCCCC3)CC2)nc(-c2cnn3ccsc23)n1)C(C)(C)C [Example 182, N-1-[6-[(2R)-3,3-dimethylbutan-2-yl]amino-2-(pyrazolo[5,1-b][1,3]thiazol-7-yl)pyrimidine-4-carbonyl]piperidin-4-ylcyclohexanecarboxamide]
2 | 87 | 1200 | > 10000 | C[C@@H](Nc1cc(C(=O)N2CCC(NC(=O)c3ccccc3)CC2)nc(-c2cnn3ccsc23)n1)C(C)(C)C [Example 183, N-1-[6-[(2R)-3,3-dimethylbutan-2-yl]amino-2-(pyrazolo[5,1-b][1,3]thiazol-7-yl)pyrimidine-4-carbonyl]piperidin-4-ylbenzamide]
3 | 62 | 470 | > 10000 | Cc1ccccc1C(=O)NC1CCN(C(=O)c2cc(N[C@@H](C)C3CC3)nc(-c3cnn4ccsc34)n2)CC1 [Example 184, N-1-[6-[(1S)-1-cyclopropylethyl]amino-2-(pyrazolo[5,1-b][1,3]thiazol-7-yl)pyrimidine-4-carbonyl]piperidin-4-yl-2-methylbenzamide]
4 | 190 | 810 | > 10000 | C[C@H](Nc1cc(C(=O)N2CCC(NC(=O)c3ccccn3)CC2)nc(-c2cnn3ccsc23)n1)C1CC1 [Example 185, N-1-[6-[(1S)-1-cyclopropylethyl]amino-2-(pyrazolo[5,1-b][1,3]thiazol 7 yl)pyrimidine-4-carbonyl]piperidin-4-ylpyridine-2-carboxamide]
5 | 81 | 580 | > 10000 | COc1ccccc1C(=O)NC1CCN(C(=O)c2cc(N[C@@H](C)C3CC3)nc(-c3cnn4ccsc34)n2)CC1 [Example 186, N-1-[6-[(1S)-1-cyclopropylethyl]amino-2-(pyrazolo[5,1-b][1,3]thiazol-7-yl)pyrimidine-4-carbonyl]piperidin-4-yl-2-methoxybenzamide]
6 | 68 | 1800 | 2100 | C[C@H](Nc1cc(C(=O)N2CCC(NC(=O)c3ccncc3)CC2)nc(-c2cnn3ccsc23)n1)C1CC1 [Example 187, N-1-[6-[(1S)-1-cyclopropylethyl]amino-2-(pyrazolo[5,1-b][1,3]thiazol-7-yl)pyrimidine-4-carbonyl]piperidin-4-ylpyridine-4-carboxamide]
7 | 1300 | > 10000 | > 10000 | CC(=O)N1CCC(Nc2cc(C(=O)N3CCC(NC(=O)C4CC4)CC3)nc(-c3cnn4ccsc34)n2)CC1 [Example 188, N-(1-6-[(l-acetylpiperidin-4-yl)amino]-2-(pyrazolo[5,1-b][1,3]thiazol-7-yl)pyrimidine-4-carbonylpiperidin-4-yl)cyclopropanecarboxamide]
8 | 1100 | > 10000 | > 10000 | CS(=O)(=O)N1CCC(Nc2cc(C(=O)N3CCC(NC(=O)C4CC4)CC3)nc(-c3cnn4ccsc34)n2)CC1 [Example 189, N-1-[6-[1-(methanesulfonyl)piperidin-4-yl]amino-2-(pyrazolo[5,1-b][1,3]thiazol-7-yl)pyrimidine-4-carbonyl]piperidin-4-ylcyclopropanecarboxamide]
9 | 65 | 1000 | 6600 | CCCCC(=O)NC1CCN(C(=O)c2cc(N[C@@H](C)C3CC3)nc(-c3cnn4ccsc34)n2)CC1 [Example 190, N-1-[6-[(1S)-1-cyclopropylethyl]amino-2-(pyrazolo[5,1-b][1,3]thiazol-7-yl)pyrimidine-4-carbonyl]piperidin-4-ylpentanamide]
10 | 52 | > 10000 | > 10000 | N#CCC(=O)N1CC[C@@H](Nc2cc(C(=O)N3CCC(NC(=O)C4CC4)CC3)nc(-c3cnn4ccsc34)n2)C1 [Example 191, N-1-[6-[(3R)-1-(cyanoacetyl)pyrrolidin-3-yl]amino-2-(pyrazolo[5,1-b][1,3]thiazol-7-yl)pyrimidine-4-carbonyl]piperidin-4-ylcyclopropanecarboxamide]
11 | 690 | > 10000 | > 10000 | COC(=O)NC1CCN(C(=O)c2cc(NCC3CCN(C(=O)OC)CC3)nc(-c3cnn4ccsc34)n2)CC1 [Example 192, Methyl 4-([6-4-[(methoxycarbonyl)amino]piperidine-1-carbonyl-2-(pyrazolo[5,1-b][1,3]thiazol-7-yl)pyrimidin-4-yl]aminomethyl)piperidine-1-carboxylate]
12 | 470 | > 10000 | > 10000 | CC(C)S(=O)(=O)N1CCC(Nc2cc(C(=O)N3CCC(NC(=O)C4CC4)CC3)nc(-c3cnn4ccsc34)n2)CC1 [Example 193, N-1-[6-[1-(propane-2-sulfonyl)piperidin-4-yl]amino-2-(pyrazolo[5,1-b][1,3]thiazol-7-yl)pyrimidine-4-carbonyl]piperidin-4-ylcyclopropanecarboxamide]
13 | 260 | > 10000 | > 10000 | COC(=O)N1CCC(Nc2cc(C(=O)N3CCC(NC(=O)C4CC4)CC3)nc(-c3cnn4ccsc34)n2)CC1 [Example 194, Methyl 4-[6-4-[(cyclopropanecarbonyl)amino]piperidine-1-carbonyl-2-(pyrazolo[5,1-b][1,3]thiazol-7-yl)pyrimidin-4-yl]aminopiperidine-1-carboxylate]
14 | 310 | 4900 | 9000 | CCCCCCC(=O)NC1CCN(C(=O)c2cc(N[C@H](C)C(C)(C)C)nc(-c3cnn4ccsc34)n2)CC1 [Example 195, N-1-[6-[(2R)-3,3-dimethylbutan-2-yl]amino-2-(pyrazolo[5,1-b][1,3]thiazol-7-yl)pyrimidine-4-carbonyl]piperidin-4-ylheptanamide]
15 | 110 | 7300 | 9100 | C[C@@H](Nc1cc(C(=O)N2CCC(NC(=O)c3ccccc3Cl)CC2)nc(-c2cnn3ccsc23)n1)C(C)(C)C [Example 196, 2-Chloro-N-1-[6-[(2R)-3,3-dimethylbutan-2-yl]amino-2-(pyrazolo[5,1-b][1,3]thiazol-7-yl)pyrimidine-4-carbonyl]piperidin-4-ylbenzamide]
16 | 120 | 3800 | 8200 | C[C@@H](Nc1cc(C(=O)N2CCC(NC(=O)c3ccc(F)cc3)CC2)nc(-c2cnn3ccsc23)n1)C(C)(C)C [Example 197, N-1-[6-[(2R)-3,3-dimethylbutan-2-yl]amino-2-(pyrazolo[5,1-b][1,3]thiazol-7-yl)pyrimidine-4-carbonyl]piperidin-4-yl-4-fluorobenzamide]
17 | 1500 | > 10000 | > 10000 | CCC(=O)N1CCC(Nc2cc(C(=O)N3CCC(NC(=O)OC)CC3)nc(-c3cnn4ccsc34)n2)CC1 [Example 198, Methyl (1-6-[(1-propanoylpiperidin-4-yl)amino]-2-(pyrazolo[5,1-b][1,3]thiazol-7-yl)pyrimidine-4-carbonylpiperidin-4-yl)carbamate]
18 | 2800 | > 10000 | > 10000 | COC(=O)NC1CCN(C(=O)c2cc(NC3CCN(C(=O)CC#N)CC3)nc(-c3cnn4ccsc34)n2)CC1 [Example 199, Methyl (1-{[6-{[1-(cyanoacetyl)piperidin-4-yl]amino}-2-(pyrazolo[5,1-b][1,3]thiazol-7-yl)pyrimidin-4-yl]carbonyl}piperidin-4-yl)carbamate]
